BindingDB's records for PubMed 21964340
pIC50, pKd: −log10 of the molar value.

What was measured:
[1] = biological target: Sodium-dependent noradrenaline transporter (Homo sapiens) (UniProt P23975); assay: Inhibition of human NET by scintillation proximity assay
[2] = Inhibition of ABCF1 (unknown origin) incubated for 1 hr by colloidal coomassie staining based LC-MS/MS analysis
[3] = Binding affinity against OGT (unknown origin) assessed as apparent dissociation constant incubated for 1 hr by colloidal coomassie staining based LC-MS/MS analysis
[4] = Binding affinity against PSME3 (unknown origin) assessed as apparent dissociation constant incubated for 1 hr by colloidal coomassie staining based LC-MS/MS analysis
[5] = Binding affinity against ELL (unknown origin) assessed as apparent dissociation constant incubated for 1 hr by colloidal coomassie staining based LC-MS/MS analysis
[6] = Inhibition of PSMD11 (unknown origin) incubated for 1 hr by colloidal coomassie staining based LC-MS/MS analysis
[7] = Inhibition of CORO1A (unknown origin) incubated for 1 hr by colloidal coomassie staining based LC-MS/MS analysis
[8] = Inhibition of UBA1 (unknown origin) incubated for 1 hr by colloidal coomassie staining based LC-MS/MS analysis
[9] = Binding affinity against GTF2I (unknown origin) assessed as apparent dissociation constant incubated for 1 hr by colloidal coomassie staining based LC-MS/MS analysis
[10] = Binding affinity against BRD9 (unknown origin) assessed as apparent dissociation constant incubated for 1 hr by colloidal coomassie staining based LC-MS/MS analysis
[11] = Binding affinity against RFC1 (unknown origin) assessed as apparent dissociation constant incubated for 1 hr by colloidal coomassie staining based LC-MS/MS analysis
[12] = Inhibition of HIST1H2BA (unknown origin) incubated for 1 hr by colloidal coomassie staining based LC-MS/MS analysis
[13] = Inhibition of WDR33 (unknown origin) incubated for 1 hr by colloidal coomassie staining based LC-MS/MS analysis
[14] = Inhibition of PIAS4 (unknown origin) incubated for 1 hr by colloidal coomassie staining based LC-MS/MS analysis
[15] = Binding affinity against TUBA4A (unknown origin) assessed as apparent dissociation constant incubated for 1 hr by colloidal coomassie staining based LC-MS/MS analysis
[16] = Inhibition of POLR2B (unknown origin) incubated for 1 hr by colloidal coomassie staining based LC-MS/MS analysis
[17] = Inhibition of SFRS10 (unknown origin) incubated for 1 hr by colloidal coomassie staining based LC-MS/MS analysis
[18] = Inhibition of LENG8 (unknown origin) incubated for 1 hr by colloidal coomassie staining based LC-MS/MS analysis
[19] = Inhibition of KPNA1 (unknown origin) incubated for 1 hr by colloidal coomassie staining based LC-MS/MS analysis
[20] = Inhibition of LAS1L (unknown origin) incubated for 1 hr by colloidal coomassie staining based LC-MS/MS analysis
[21] = Inhibition of NACC1 (unknown origin) incubated for 1 hr by colloidal coomassie staining based LC-MS/MS analysis
[22] = Binding affinity against DSG1 (unknown origin) assessed as apparent dissociation constant incubated for 1 hr by colloidal coomassie staining based LC-MS/MS analysis
[23] = Inhibition of PTBP1 (unknown origin) incubated for 1 hr by colloidal coomassie staining based LC-MS/MS analysis
[24] = Inhibition of SF3B14 (unknown origin) incubated for 1 hr by colloidal coomassie staining based LC-MS/MS analysis
[25] = Inhibition of INTS8 (unknown origin) incubated for 1 hr by colloidal coomassie staining based LC-MS/MS analysis
[26] = Inhibition of CSNK2A1 (unknown origin) incubated for 1 hr by colloidal coomassie staining based LC-MS/MS analysis
[27] = Inhibition of PUS1 (unknown origin) incubated for 1 hr by colloidal coomassie staining based LC-MS/MS analysis
[28] = Binding affinity against CCT2 (unknown origin) assessed as apparent dissociation constant incubated for 1 hr by colloidal coomassie staining based LC-MS/MS analysis
[29] = Inhibition of OGT (unknown origin) incubated for 1 hr by colloidal coomassie staining based LC-MS/MS analysis
[30] = Inhibition of RFC1 (unknown origin) incubated for 1 hr by colloidal coomassie staining based LC-MS/MS analysis
[31] = Inhibition of CCNL2 (unknown origin) incubated for 1 hr by colloidal coomassie staining based LC-MS/MS analysis
[32] = Inhibition of SMCHD1 (unknown origin) incubated for 1 hr by colloidal coomassie staining based LC-MS/MS analysis
[33] = Inhibition of ARL1 (unknown origin) incubated for 1 hr by colloidal coomassie staining based LC-MS/MS analysis
[34] = Binding affinity against NOLC1 (unknown origin) assessed as apparent dissociation constant incubated for 1 hr by colloidal coomassie staining based LC-MS/MS analysis
[35] = Inhibition of RPS15A (unknown origin) incubated for 1 hr by colloidal coomassie staining based LC-MS/MS analysis
[36] = Inhibition of TKT (unknown origin) incubated for 1 hr by colloidal coomassie staining based LC-MS/MS analysis
[37] = Binding affinity against SETD1B (unknown origin) assessed as apparent dissociation constant incubated for 1 hr by colloidal coomassie staining based LC-MS/MS analysis
[38] = Binding affinity against PWWP2B (unknown origin) assessed as apparent dissociation constant incubated for 1 hr by colloidal coomassie staining based LC-MS/MS analysis
[39] = Inhibition of PRDX6 (unknown origin) incubated for 1 hr by colloidal coomassie staining based LC-MS/MS analysis
[40] = Inhibition of RPN2 (unknown origin) incubated for 1 hr by colloidal coomassie staining based LC-MS/MS analysis

Sodium-dependent noradrenaline transporter (Homo sapiens), sequence (P23975 whole entry, looked up): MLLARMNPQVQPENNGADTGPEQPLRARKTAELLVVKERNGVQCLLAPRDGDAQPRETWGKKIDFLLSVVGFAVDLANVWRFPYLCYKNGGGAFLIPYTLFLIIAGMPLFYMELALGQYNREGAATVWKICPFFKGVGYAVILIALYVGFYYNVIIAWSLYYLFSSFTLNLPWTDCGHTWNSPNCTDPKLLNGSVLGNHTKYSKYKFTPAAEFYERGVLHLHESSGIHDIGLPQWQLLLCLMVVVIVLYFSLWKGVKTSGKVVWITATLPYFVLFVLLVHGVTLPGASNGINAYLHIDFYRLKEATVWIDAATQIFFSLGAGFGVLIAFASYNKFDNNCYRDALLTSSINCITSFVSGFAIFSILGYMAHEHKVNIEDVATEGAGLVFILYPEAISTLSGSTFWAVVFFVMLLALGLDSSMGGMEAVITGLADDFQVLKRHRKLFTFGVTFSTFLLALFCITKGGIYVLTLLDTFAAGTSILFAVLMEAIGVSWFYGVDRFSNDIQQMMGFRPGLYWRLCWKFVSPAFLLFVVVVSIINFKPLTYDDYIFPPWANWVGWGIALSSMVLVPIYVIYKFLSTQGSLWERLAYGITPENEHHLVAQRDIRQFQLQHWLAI

For `CCNC(=O)C[C@@H]1N=C(c2ccc(Cl)cc2)c2cc(OC)ccc2-n2c(C)nnc21`, the pIC50 [1] was < 4.00, the pIC50 [2] was < 5.00 and the pKd [3] was 6.65. The pKd [4] was 7.08, the pKd [5] was 7.18 and the pIC50 [6] was 7.22. For the same compound, the pIC50 [7] was < 5.00, the pIC50 [8] was < 5.00 and the pKd [9] was 5.12. For the same compound, the pKd [10] was 7.70, the pKd [11] was 7.27 and the pIC50 [12] was < 5.00. The pIC50 [13] was 5.96, the pIC50 [14] was < 5.00 and the pKd [15] was 6.99. For the same compound, the pIC50 [16] was 6.82, the pIC50 [17] was 6.64 and the pIC50 [18] was 7.00. For the same compound, the pIC50 [19] was 7.52, the pIC50 [20] was 6.57 and the pIC50 [21] was < 5.00. The pKd [22] was 5.34, the pIC50 [23] was < 5.00 and the pIC50 [24] was < 5.00. The pIC50 [25] was < 5.00, the pIC50 [26] was 6.92 and the pIC50 [27] was < 5.00. It also gave a pKd [28] of 5.79, a pIC50 [29] of 6.32 and a pIC50 [30] of 7.30. The pIC50 [31] was 7.30, the pIC50 [32] was 5.97 and the pIC50 [33] was < 5.00. For the same compound, the pKd [34] was 7.20, the pIC50 [35] was 5.86 and the pIC50 [36] was 5.28. For the same compound, the pKd [37] was 7.35, the pKd [38] was 7.60 and the pIC50 [39] was < 5.00. The pIC50 [40] was < 5.00.
